A short description of data set [1]: Study 2: midazolam pharmacokinetics alone or with single and multiple dose entrectinib. An excerpt: Following completion of this part of the study, subjects could continue in an expanded access portion of the study which is not discussed here.
A short description of another data set: clinical. The settings on record: human, oral.
The subject of another data set is CYP3A4/5. The data set is described as follows: Effect of CYP-selective inhibitors on metabolism of entrectinib by pooled human liver microsomes. In kind it is in vitro ADME.
For another data set, the target named is CYP2D6 (Homo sapiens, UniProt P10635). Described as above. The note with it: inhibitor 1 µM, 1 µM entrectinib.
Sequence of CYP2D6 (P10635 whole entry): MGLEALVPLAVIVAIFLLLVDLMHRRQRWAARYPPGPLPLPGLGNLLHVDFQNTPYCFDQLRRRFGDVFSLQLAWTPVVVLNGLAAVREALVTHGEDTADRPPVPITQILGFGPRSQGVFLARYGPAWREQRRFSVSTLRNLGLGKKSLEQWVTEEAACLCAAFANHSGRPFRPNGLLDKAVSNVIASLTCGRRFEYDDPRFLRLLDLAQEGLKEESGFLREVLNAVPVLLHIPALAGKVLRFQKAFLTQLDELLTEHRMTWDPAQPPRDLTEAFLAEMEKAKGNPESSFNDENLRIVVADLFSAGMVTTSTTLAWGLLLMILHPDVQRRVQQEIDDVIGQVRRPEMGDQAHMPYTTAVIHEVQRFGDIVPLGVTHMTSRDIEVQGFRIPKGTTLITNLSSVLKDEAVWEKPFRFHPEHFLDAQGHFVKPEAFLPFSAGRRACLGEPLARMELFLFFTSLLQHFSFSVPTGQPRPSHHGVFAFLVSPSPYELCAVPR
Where [2] appears, read: Effect of Multiple Dose Entrectinib.
Where [3] appears, read: Effect of Single Dose Entrectinib.
Setting [4] is: Midazolam alone, geometric mean (geometric CV).
The mark [5] stands for this setting: Midazolam with multiple dose entrectinib 600 mg/day, geometric mean (geometric CV).
Where [6] appears, read: Midazolam with multiple dose entrectinib, geometric mean (geometric CV).
[7] abbreviates: Midazolam with multiple dose entrectinib, median (minimum, maximum).
Setting [8] is: Midazolam with single dose entrectinib 600 mg, geometric mean (geometric CV).
Setting [9] is: Midazolam with single dose entrectinib, geometric mean (geometric CV).
Setting [10] is: Digoxin alone, geometric mean (geometric CV).
Setting [11] is: digoxin with entrectinib vs alone.
The mark [12] stands for this setting: single dose entrectinib 600 mg vs digoxin alone.

Read-outs that look alike come from different tables or passages of the source.

For the compound `OCc1ncc2n1-c1ccc(Cl)cc1C(c1ccccc1F)=NC2` [1’-hydroxymidazolam], the “Ratio of adjusted geometric means (90% Confidence Intervals), AUCinf” value in data set [1] (setting [2]) is given as 0.89 (0.70, 1.12); in data set [1] (setting [3]) it was 0.96 (0.83, 1.10). Besides, the “Ratio of adjusted geometric means (90% Confidence Intervals), Cmax” value in data set [1] (setting [2]) is on record as 0.49 (0.36, 0.67); in data set [1] (setting [3]) it was 0.62 (0.50, 0.76). In addition, the Cmax in data set [1] (setting [4]) is 6.57 nM; in data set [1] (setting [5]) it was 3.51 nM; in data set [1] (setting [8]) it was 4.21 nM. The t1/2 in data set [1] (setting [4]) is 3.71 (81%) h; in data set [1] (setting [6]), 5.37 (75%) h; in data set [1] (setting [9]), 4.56 (49%) h. Moreover, the Tmax in data set [1] (Midazolam alone, median (minimum, maximum)) is listed as 0.5 (0.25, 1.00) h; in data set [1] (setting [7]), 0.75 (0.5, 5.97) h; in data set [1] (Midazolam with single dose entrectinib, median (minimum, maximum)), 1.0 (0.48, 23.6) h. In addition, the AUCinf is 14.9 (60%) nM•h in data set [1] (Midazolam alone, single 7.5 mg midazolam dose (title), subjects with advanced solid tumors, geometric mean (geometric CV)); 14.0 (42%) nM•h in data set [1] (setting [5]); 14.4 (52%) nM•h in data set [1] (setting [8]). Further, in data set [1] (coadministration with multiple-dose entrectinib vs midazolam alone), the “metabolic ratio of metabolite to parent for AUCinf and Cmax, point estimates” value is listed as 59% to 64%. Moreover, the “decrease of 1’-hydroxymidazolam metabolite-to-parent ratio” value in data set [1] (multiple oral doses of entrectinib at steady-state) is given as 41%.
In the case of `C[C@H]1O[C@@H](O[C@H]2[C@@H](O)C[C@H](O[C@H]3[C@@H](O)C[C@H](O[C@H]4CC[C@@]5(C)[C@H](CC[C@@H]6[C@@H]5C[C@@H](O)[C@]5(C)[C@@H](C7=CC(=O)OC7)CC[C@]65O)C4)O[C@@H]3C)O[C@@H]2C)C[C@H](O)[C@@H]1O` [Digoxin], under setting [10], the peak level (Cmax) was 1.97 nM; the “fe, percent of dose excreted unchanged in urine” value is on record as 40.2 (13%); the t1/2 was 35.9 (15%) h. Further, the “fe, percent of dose excreted unchanged in urine” value (Digoxin alone, geometric mean (geometric CV), listed as digoxin) turned out to be 40%. In addition, under “Digoxin alone, median (minimum, maximum)”, the Tmax is 1.0 (0.5, 1.0) h. The CLR (Digoxin alone, renal clearance, geometric mean (geometric CV)) is 130 (16%) mL/min. Further, the “fe, percent of dose excreted unchanged in urine” value (Digoxin with single 600 mg entrectinib, geometric mean (geometric CV)) is recorded as 44.0 (14%). Further, the “fe, percent of dose excreted unchanged in urine” value (Digoxin with single 600 mg entrectinib, geometric mean (geometric CV), listed as digoxin) came out at 44%. Under setting [11], the “Ratio of adjusted geometric means (90% Confidence Intervals), AUCinf” value is recorded as 1.18 (1.06, 1.32); the “Ratio of adjusted geometric means (90% Confidence Intervals), CLR” value is 0.95 (0.91, 0.98); the “Ratio of adjusted geometric means (90% Confidence Intervals), Cmax” value is listed as 1.28 (0.98, 1.67). For the same compound, the “geometric mean ratio of CLR with and without entrectinib” value (exploratory analysis, 90% CI: 90.9%, 98.4%) was found to be 94.6%. In addition, the Tmax later entry (single 600 mg dose of entrectinib coadministered with digoxin) was “approximately 1 h”. Also, under setting [12], the “increase of AUCinf” value was found to be 18% and the “increase of Cmax” value is on record as 28%. The “increase in digoxin exposure” value (single oral dose of entrectinib coadministered) was 20–30%. The same compound came in with an AUC(0-inf) in “clinical” (plasma, 75 mg) of 34.2 nM·h. In “clinical” (plasma, 600 mg), the AUC(0-inf) worked out at 40.4 nM·h, the Cmax amounted to 2.52 nM, the Tmax was found to be 2 h and the half-life is 38.4 h. Also, the CL renal in “clinical” (urine, 600 mg) came to 123 mL/min.
Turning to `CC(=O)N1CCN(c2ccc(OCC3COC(Cn4ccnc4)(c4ccc(Cl)cc4Cl)O3)cc2)CC1` (stereo not drawn) [Ketoconazole], the “inhibition of entrectinib metabolism depending on the metabolite formed” value in the data set with CYP3A4/5 (human liver microsomes) is 50–80%. The same compound had an inhibition at 1 µM with CYP3A4/5 (human, pooled human liver microsomes, probe entrectinib (metabolism to M5)) of 82 ± 3%. Further, in the data set with CYP3A4/5 (inhibitor 1 µM, 1 µM entrectinib, pooled human liver microsomes), the “Effect on Formation of other Entrectinib Metabolites” value is “+ + + (> 50% inhibition of multiple metabolites)”.
Take `Cc1ncc2n1-c1ccc(Cl)cc1C(c1ccccc1F)=NC2` [Midazolam]: the t1/2 in data set [1] (setting [6]) is given as 6.4 (68%) h; in data set [1] (setting [9]), 5.33 (44%) h. The Tmax in data set [1] (setting [7]) was 0.50 (0, 1.05) h; in data set [1] (human, plasma, oral, 7.5 mg) it was 0.49 h. For the same compound, the half-life was 8.13 h in data set [1] (human, plasma, oral) and 5.2 h in data set [1] (human, plasma, oral, 7.5 mg). Moreover, the Cmax in data set [1] (human, plasma, oral, 7.5 mg) amounted to 19 nM; in data set [1] (human, plasma, oral, 600 mg), 12.9 nM. In addition, the AUC(0-inf) in data set [1] (human, plasma, oral, 600 mg) turned out to be 43.7 nM·h. Moreover, the “mean t1/2” value in data set [1] (midazolam with a single dose of entrectinib) is reported as 5.73 h.
Take `C=C[C@H]1C[N@@]2CC[C@H]1C[C@@H]2[C@@H](O)c1ccnc2ccc(OC)cc12` [Quinidine]: on CYP2D6, the “Effect on Formation of other Entrectinib Metabolites” value is given as “+ (> 20% inhibition of 1 metabolite)”.

These data come from publication PMC8763936 (Investigational New Drugs, 2021).
